How the values were obtained:
[1] = system: senescent A549 cells; assay: Senescence assay: viability of senescent A549 cells; assay type: cell-based; conditions: Homo sapiens, 24-72 hours incubation, viability by CellTiter-Glo or XTT, read-out: Absolute IC50 average A549_SEN IC50
In short: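 A549 and HEPG2 cells made senescent by sublethal chemotherapy (bleomycin, gemcitabine, doxorubicin or 5-fluorouridine) plus recovery, verified by low EdU and high SA-β-Gal. Ten-point duplicate dosing for 24-72 h; viability by CellTiter-Glo or XTT versus untreated cells; absolute IC50 from four-parameter Hill fit.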

[2] = molecular target: T1, GPX4 (Homo sapiens, UniProt P36969); assay: Competitive binding to GPX4 in A549 cells with biotinylated analog, streptavidin pull-down; assay type: cell-based; design: host or cells: A549; conditions: 2 μM for 2 hours before 2 μM compound 21 for 5 hours
T1 sequence (P36969 1-197): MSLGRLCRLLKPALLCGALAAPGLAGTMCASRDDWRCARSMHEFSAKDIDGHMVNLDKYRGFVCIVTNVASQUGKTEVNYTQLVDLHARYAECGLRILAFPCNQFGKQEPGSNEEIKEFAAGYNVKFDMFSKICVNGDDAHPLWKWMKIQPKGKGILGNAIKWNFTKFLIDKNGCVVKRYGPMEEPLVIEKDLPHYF
Description: Binding of compounds 32 and 69 to the target protein GPX4 in cultured cells can be assessed by the use of biotinylated analogs such as compound 21 that retain their cellular activities. Cells or tissue simultaneously or sequentially exposed to compounds 32 and 69 and biotinylated analog 21 can be analyzed for exogenous biotinylated proteins and thereby enables the identification of cellular targets of compounds 32 and 69. The A549 cancer cell line (ATCC) was exposed to 2 μM of compounds 32 and 69 for 2 hours followed by the addition of 2 μM of compound 21 for 5 hours. Cells were collected and lysed by IGEPAL CA-630 and sodium dodecyl sulfate (SDS) in the presence of a protease inhibitor cocktail (4693132001, Roche). The soluble protein fraction was isolated and incubated with Streptavidin Mag Sepharose (28-9857-38, Cytiva) at 4° C. for 16 hours. The streptavidin-unbound fraction was collected allowing for the quantification of the proportion of GPX4 depleted by the biotinylated compound 21 relative to samples not treated with Streptavidin Mag Sepharose. Furthermore, biotinylated proteins were eluted from Streptavidin Mag Sepharose by head-denaturation in the presence of excess biotin (5 mM). […] Chemiluminescent following HRP substrate addition (34580, ThermoFisher) was detected by the ChemiDoc XRS+ System (Bio-Rad). […]

[3] = molecular target: T2, GPX4 (Mus musculus, UniProt O70325); assay: Electrophoretic gel mobility shift of GPX4 in skin of treated mice (target engagement); assay type: in vivo; conditions: skin of BALB/c mice exposed to mitomycin C; 24 hr treatment
T2 construct: tissue Charles River Laboratories; host or cells: skin of BALB/c mice
T2 sequence (O70325 whole entry): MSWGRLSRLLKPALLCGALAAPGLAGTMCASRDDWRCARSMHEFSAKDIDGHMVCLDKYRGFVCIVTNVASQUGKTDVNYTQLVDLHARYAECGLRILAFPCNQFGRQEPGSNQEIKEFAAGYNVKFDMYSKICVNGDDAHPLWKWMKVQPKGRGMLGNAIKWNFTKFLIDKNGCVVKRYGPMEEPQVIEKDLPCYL
Description: An electrophoretic gel mobility shift assay of GPX4 was applied to determine the level of target engagement of compound 32 as a direct biomarker in tissues. For example, target engagement of compound 32 was assessed in the skin of mice exposed to mitomycin C, a potent inducer of cellular senescence. Following 24 hr treatment with compound 32, the skin of treated BALB/c mice (Charles River Laboratories) was collected and lysed by IGEPAL CA-630 and sodium dodecyl sulfate (SDS) in the presence of a protease inhibitor cocktail (4693132001, Roche) and benzonase (E1014, Sigma-Aldrich). The soluble protein fraction was isolated and heat-denatured in the presence of dithiothreitol (DTT). Proteins were electrophoretically separated using a Bis-Tris protein gel with 12% polyacrylamide concentration. Following the transfer of proteins to a PVDF membrane, the membrane was probed with an anti-GPX4 monoclonal antibody (ab125066, Abcam) and anti-beta-Actin (4970, Cell Signaling Technology), followed by an anti-rabbit IgG HRP conjugated antibody (31460, ThermoFisher). Chemiluminescent following HRP substrate addition (34580, ThermoFisher) was detected by the ChemiDoc XRS+System (BioRad).

Structure (SMILES): C#CC(F)(F)[C@]1(O)CC[C@H]2[C@@H]3CCC4=CC(=NNC(=O)NC5CC5)CCC4=C3[C@H](c3ccc(C4CC4)cc3)C[C@@]21C [Compound 32, N-cyclopropyl-2-((8S,11S,13S,14S,17S)-11-(4-cyclopropylphenyl)-17-(1,1-difluoroprop-2-yn-1-yl)-17-hydroxy-13-methyl-1,2,6,7,8,11,12,13,14,15,16,17-dodecahydro-3H-cyclopenta[a]phenanthren-3-ylidene)hydrazine-1-carboxamide]
- IC50 [1]: 0.1 to 10 nM
- effect of pre-treatment on compound 21 dependent depletion of GPX4 protein [2]: reduces the compound 21 dependent depletion of GPX4 protein
- GPX4 band shift in skin (target engagement) [3]: slower migrating band for GPX4 was observed

Reference: US12485132B2, “GPX4 inhibitors and senolytic compounds and uses thereof” (Rubedo Life Sciences, Inc., priority 2023, dated 2025)
